Reference: US9434711B2 (Janssen Pharmaceutica, NV, priority 2007, dated 2016)

Biological target: canine TRPM8 (Canis lupus familiaris, UniProt Q1A7N1)
Test: In Vitro Canine TRPM8 Functional Assay (Ca2+ fluorescence, icilin activation)
Format: cell-based
Conditions: HEK293 cells stably expressing canine TRPM8, icilin activation; for inhibition at 0.2 µM: 0.2 μM compound, read-out: % Inh @ 0.2; for IC50: average of two or more determinations, read-out: IC50
How it was run: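 Readout is the intracellular Ca2+ fluorescence change, measured by FLIPR or FDSS, in HEK293 cells stably expressing canine TRPM8. Potency (EC50 or IC50) is fitted from eight concentrations averaged over quadruplicate wells.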

canine TRPM8, sequence (Q1A7N1 1-1104): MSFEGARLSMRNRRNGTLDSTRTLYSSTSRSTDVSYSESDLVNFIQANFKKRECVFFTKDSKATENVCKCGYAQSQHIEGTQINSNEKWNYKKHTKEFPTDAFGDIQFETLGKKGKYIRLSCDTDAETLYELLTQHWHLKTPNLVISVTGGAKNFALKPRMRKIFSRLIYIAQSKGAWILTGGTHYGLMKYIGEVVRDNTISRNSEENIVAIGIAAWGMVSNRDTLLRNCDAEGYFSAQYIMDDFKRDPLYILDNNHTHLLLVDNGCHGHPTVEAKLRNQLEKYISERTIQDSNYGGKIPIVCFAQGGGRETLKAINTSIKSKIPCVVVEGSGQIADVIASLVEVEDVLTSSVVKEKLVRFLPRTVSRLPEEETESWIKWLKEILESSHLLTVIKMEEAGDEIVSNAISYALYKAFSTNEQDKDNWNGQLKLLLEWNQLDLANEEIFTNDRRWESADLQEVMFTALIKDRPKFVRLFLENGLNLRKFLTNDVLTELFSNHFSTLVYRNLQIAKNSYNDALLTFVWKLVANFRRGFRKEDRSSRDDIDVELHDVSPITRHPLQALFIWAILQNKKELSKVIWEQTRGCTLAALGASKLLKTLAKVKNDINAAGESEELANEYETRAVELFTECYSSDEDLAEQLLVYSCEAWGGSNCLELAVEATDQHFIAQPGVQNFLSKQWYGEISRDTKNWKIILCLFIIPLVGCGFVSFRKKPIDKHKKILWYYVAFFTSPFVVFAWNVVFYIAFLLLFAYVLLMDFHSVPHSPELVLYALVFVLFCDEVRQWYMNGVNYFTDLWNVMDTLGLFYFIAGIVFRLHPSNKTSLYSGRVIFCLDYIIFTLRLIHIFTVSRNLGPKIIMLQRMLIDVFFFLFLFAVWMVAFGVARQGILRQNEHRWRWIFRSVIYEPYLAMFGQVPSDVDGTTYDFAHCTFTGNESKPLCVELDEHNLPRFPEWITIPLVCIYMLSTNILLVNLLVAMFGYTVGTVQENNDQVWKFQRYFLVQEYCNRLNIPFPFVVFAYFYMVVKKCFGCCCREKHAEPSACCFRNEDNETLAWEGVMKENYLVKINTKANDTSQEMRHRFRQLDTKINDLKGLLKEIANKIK

SMILES	inhibition at 0.2 µM	IC50
Cc1c(N(CCCCC(F)(F)F)S(=O)(=O)c2ccc(-c3nn(C)c(=O)[nH]3)cc2)sc2ccccc12 [Compound 812, N-(3-Methyl-benzo[b]thiophen-2-yl)-N-(5,5,5-trifluoro-pentyl)-4-(1-methyl-5-oxo-4,5-dihydro-1H-[1,2,4]triazol-3-yl)-benzenesulfonamide]	103%	0.0076 µM
O=S(=O)(c1ccccc1)N(Cc1ccc(F)c(C(F)(F)F)c1)c1sc2ncccc2c1Cl [Compound 813, N-(3-Chloro-thieno[2,3-b]pyridin-2-yl)-N-(4-fluoro-3-trifluoromethyl-benzyl)-benzenesulfonamide]	90%	0.028 µM
O=C(O)c1cccc(S(=O)(=O)N(Cc2ccc(F)c(C(F)(F)F)c2)c2sc3ncccc3c2Cl)c1 [Compound 814, N-(3-Chloro-thieno[2,3-b]pyridin-2-yl)-N-(4-fluoro-3-trifluoromethyl-benzyl)-3-carboxy-benzenesulfonamide]	80%	0.138 µM
O=C(O)c1ccc(S(=O)(=O)N(CCC(F)(F)F)c2sc3ncccc3c2Cl)cc1 [Compound 815, N-(3-Chloro-thieno[2,3-b]pyridin-2-yl)-N-(3,3,3-trifluoro-propyl)-4-carboxy-benzenesulfonamide]	44%	–
COC(=O)c1cccc(S(=O)(=O)N(Cc2ccc(F)c(C(F)(F)F)c2)c2sc3ncccc3c2Cl)c1 [Compound 816, N-(3-Chloro-thieno[2,3-b]pyridin-2-yl)-N-(4-fluoro-3-trifluoromethyl-benzyl)-3-carbomethoxy-benzenesulfonamide]	15%	–
O=S(=O)(c1ccccc1)N(CCCF)c1cc2ccccc2s1 [Compound 817, N-(Benzo[b]thiophen-2-yl)-N-(3-fluoro-propyl)-benzenesulfonamide]	80%	0.073 µM
Cc1c(N(CCF)S(=O)(=O)c2ccccc2)sc2ccccc12 [Compound 818, N-(2-Fluoro-ethyl)-N-(3-methyl-benzo[b]thiophen-2-yl)-benzenesulfonamide]	92%	0.062 µM
Cc1c(N(CCCF)S(=O)(=O)c2ccccc2)sc2ccccc12 [Compound 819, N-(3-Fluoro-propyl)-N-(3-methyl-benzo[b]thiophen-2-yl)-benzenesulfonamide]	98%	0.021 µM
COC(C)c1c(N(CCCF)S(=O)(=O)c2ccccc2)sc2ccccc12 (stereo not drawn) [Compound 822, N-(3-Fluoro-propyl)-N-[3-(1-methoxy-ethyl)-benzo[b]thiophen-2-yl]-benzenesulfonamide]	97%	0.049 µM
COC(=O)c1ccc(S(=O)(=O)N(CCCF)c2sc3ccccc3c2C)cc1 [Compound 823, N-(3-Fluoro-propyl)-N-(3-methyl-benzo[b]thiophen-2-yl)-4-carbomethoxy-benzenesulfonamide]	102%	0.022 µM
Cc1c(N(CCCF)S(=O)(=O)c2ccc(C(=O)O)cc2)sc2ccccc12 [Compound 824, N-(3-Fluoropropyl)-N-(3-methyl-benzo[b]thiophen-2-yl)-4-carboxy-benzenesulfonamide]	98%	0.038 µM
Cc1c(N(Cc2ccccc2)S(=O)(=O)c2ccc(F)c(F)c2)sc2ccccc12 [Compound 825, N-(Benzyl)-N-(3-methyl-benzo[b]thiophen-2-yl)-3,4-difluoro-benzenesulfonamide]	89%	0.025 µM
Cc1c(N(Cc2ccc(F)cc2)S(=O)(=O)c2ccc(F)c(F)c2)sc2ccccc12 [Compound 826, N-(4-Fluoro-benzyl)-N-(3-methyl-benzo[b]thiophen-2-yl)-3,4-difluoro-benzenesulfonamide]	97%	0.024 µM
CCS(=O)(=O)N(Cc1ccc(F)c(OC)c1)c1sc2ccccc2c1C(C)O (stereo not drawn) [Compound 827, N-(4-Fluoro-3-methoxybenzyl)-N-[3-(1-hydroxyethyl)-benzo[b]thiophen-2-yl]-ethanesulfonamide]	101%	0.0066 µM
CCS(=O)(=O)N(Cc1ccc(F)c(OC)c1)c1cc2ccccc2s1 [Compound 828, N-(Benzo[b]thiophen-2-yl)-N-(4-fluoro-3-methoxy-benzyl)-ethanesulfonamide]	88%	0.0427 µM
CCS(=O)(=O)N(Cc1ccnc(F)c1)c1sc2ccccc2c1C [Compound 829, N-(2-Fluoro-pyridin-4-ylmethyl)-N-(3-methyl-benzo[b]thiophen-2-yl)-ethanesulfonamide]	100%	0.023 µM
CC(C)(O)c1c(N(CCCF)S(=O)(=O)c2ccccc2)sc2ccccc12 [Compound 830, N-(3-Fluoropropyl)-N-[3-(1-hydroxy-1-methyl-ethyl)-benzo[b]thiophen-2-yl]-benzenesulfonamide]	102%	0.015 µM
Cc1c(N(CCCF)S(=O)(=O)c2ccc(F)c(F)c2)sc2ccccc12 [Compound 831, N-(3-Fluoro-propyl)-N-(3-methyl-benzo[b]thiophen-2-yl)-3,4-difluoro-benzenesulfonamide]	91%	0.05 µM

SMILES	inhibition at 0.2 µM	IC50
COCc1c(N(CCCF)S(=O)(=O)c2ccccc2)sc2ccccc12 [Compound 832, N-(3-Fluoro-propyl)-N-(3-methoxymethyl-benzo[b]thiophen-2-yl)-benzenesulfonamide]	76%	0.088 µM
CC(=O)c1c(N(CCCF)S(=O)(=O)c2ccccc2)sc2ccccc12 [Compound 833, N-(3-Acetyl-benzo[b]thiophen-2-yl)-N-(3-fluoro-propyl)-benzenesulfonamide]	102%	0.013 µM
O=S(=O)(c1cc(Br)ccc1Br)N(Cc1ccc(F)c(F)c1)c1sc2ccccc2c1CO [Compound 834, 2,5-Dibromo-N-(3,4-difluoro-benzyl)-N-(3-hydroxymethyl-benzo[b]thiophen-2-yl)-benzenesulfonamide]	87%	0.123 µM
CCS(=O)(=O)N(Cc1ccnc(F)c1)c1sc2ccccc2c1C(C)O (stereo not drawn) [Compound 835, N-(2-Fluoropyridin-4-ylmethyl)-N-[3-(1-hydroxyethyl)-benzo[b]thiophen-2-yl]-ethanesulfonamide]	89%	0.0551 µM
CCS(=O)(=O)N(Cc1ccnc(F)c1)c1sc2ccccc2c1C(C)(C)O [Compound 836, N-(2-Fluoro-pyridin-4-ylmethyl)-N-[3-(1-hydroxy-1-methyl-ethyl)-benzo[b]thiophen-2-yl]-ethanesulfonamide]	96%	0.024 µM
CCS(=O)(=O)N(Cc1ccc(F)c(OC)c1)c1sc2ccccc2c1C(C)=O [Compound 837, N-(3-Acetyl-benzo[b]thiophen-2-yl)-N-(4-fluoro-3-methoxy-benzyl)-ethanesulfonamide]	103%	0.015 µM
CCS(=O)(=O)N(Cc1ccc(F)c(OC)c1)c1sc2ccccc2c1C(C)(C)O [Compound 838, N-(4-Fluoro-3-methoxybenzyl)-N-[3-(1-hydroxy-1-methyl-ethyl)-benzo[b]thiophen-2-yl]-ethanesulfonamide]	101%	–
CCS(=O)(=O)N(Cc1ccc(F)c(C(F)(F)F)c1)c1sc2ccccc2c1C(C)OC (stereo not drawn) [Compound 839, N-(4-Fluoro-3-trifluoromethyl-benzyl)-N-[3-(1-methoxy-ethyl)-benzo[b]thiophen-2-yl]-ethanesulfonamide]	101%	0.0159 µM
CCS(=O)(=O)N(Cc1c(F)cnc(F)c1F)c1sc2ccccc2c1C [Compound 840, N-(3-Methyl-benzo[b]thiophen-2-yl)-N-(2,3,5-trifluoro-pyridin-4-ylmethyl)-ethanesulfonamide]	71.1%	0.0981 µM
Cc1c(N(CCF)S(=O)(=O)c2ccc(F)c(F)c2)sc2ccccc12 [Compound 841, N-(2-Fluoro-ethyl)-N-(3-methyl-benzo[b]thiophen-2-yl)-3,4-difluoro-benzenesulfonamide]	55%	–
COC(=O)c1ccc(S(=O)(=O)N(CCCF)c2cc3ccccc3s2)cc1 [Compound 842, N-(Benzo[b]thiophen-2-yl)-N-(3-fluoro-propyl)-4-carbomethoxy-benzenesulfonamide]	63%	–
COC(=O)c1ccc(S(=O)(=O)N(CCF)c2cc3ccccc3s2)cc1 [Compound 843, N-(Benzo[b]thiophen-2-yl)-N-(2-fluoro-ethyl)-4-carbomethoxy-benzenesulfonamide]	31%	–
O=S(=O)(c1ccccc1)N(CCF)c1cc2ccccc2s1 [Compound 844, N-(Benzo[b]thiophen-2-yl)-N-(2-fluoro-ethyl)-benzenesulfonamide]	31%	–
Cc1c(N(Cc2ccc(F)cc2)S(=O)(=O)c2ccc(OCc3ccc(F)cc3)c(F)c2)sc2ccccc12 [Compound 845, 3-Fluoro-N-(4-fluoro-benzyl)-4-(4-fluoro-benzyloxy)-N-(3-methyl-benzo[b]thiophen-2-yl)-benzenesulfonamide]	24%	–
Cc1c(N(Cc2ccccc2)S(=O)(=O)c2ccc(OCc3ccccc3)c(F)c2)sc2ccccc12 [Compound 846, N-(Benzyl)-4-benzyloxy-3-fluoro-N-(3-methyl-benzo[b]thiophen-2-yl)-benzenesulfonamide]	28%	–
CCS(=O)(=O)N(Cc1ccnc(F)c1)c1cc2ccccc2s1 [Compound 847, N-(Benzo[b]thiophen-2-yl)-N-(2-fluoro-pyridin-4-ylmethyl)-ethane-sulfonamide]	33%	–
CCS(=O)(=O)N(Cc1ccnc(F)c1)c1sc2ccccc2c1C(C)=O [Compound 848, N-(3-Acetyl-benzo[b]thiophen-2-yl)-N-(2-fluoro-pyridin-4-ylmethyl)-ethansulfonamide]	68%	–
CCCCNS(=O)(=O)N(CCCC)c1sc2ccccc2c1Br [Compound 849, N-(3-Bromo-benzo[b]thiophen-2-yl)-N,N′-bis-butyl-sulfamide]	25%	–
